Measured values as given in ChEMBL document CHEMBL1201862, “PubChem BioAssay data set” (2004).
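All cell lines were grown in 96-well plates and treated with compound for 48 hours. Here, GI50 denotes the concentration required for 50% inhibition of growth.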 The source made the active and inactive calls. Rule as the data show it: active = GI50 up to about 1.1 µM and inactive = higher.

Key:
Assay in all cases: DTP human tumour cell line panel, 48 h
EKVX = tested on: EKVX
HCT-116 = tested on: HCT-116
HL-60 = tested on: HL-60
M14 = tested on: M14
MOLT-4 = tested on: MOLT-4
NCI-H522 = tested on: NCI-H522
OVCAR-3 = tested on: OVCAR-3
OVCAR-4 = tested on: OVCAR-4
SF-539 = tested on: SF-539
SR = tested on: SR
TK-10 = tested on: TK-10
UACC-257 = tested on: UACC-257
UACC-62 = tested on: UACC-62
UO-31 = tested on: UO-31
A498 = tested on: A498
RPMI-8226 = tested on: RPMI-8226

| Compound | GI50 (EKVX) | GI50 (HCT-116) | GI50 (HL-60) | GI50 (M14) | GI50 (MOLT-4) | GI50 (NCI-H522) | GI50 (OVCAR-3) | GI50 (OVCAR-4) | GI50 (SF-539) | GI50 (SR) | GI50 (TK-10) | GI50 (UACC-257) | GI50 (UACC-62) | GI50 (UO-31) | GI50 (A498) | GI50 (RPMI-8226) |
| --- | --- | --- | --- | --- | --- | --- | --- | --- | --- | --- | --- | --- | --- | --- | --- | --- |
| Cc1nc2c(n1Cc1ccc(Cl)cc1)C(=O)c1ccccc1C2=O | > 75 µM (inactive) | 2.6 µM (inactive) | 4.36 µM (inactive) | > 75 µM (inactive) | 3.14 µM (inactive) | 5.52 µM (inactive) | 67.3 µM (inactive) | > 75 µM (inactive) | 2.48 µM (inactive) | 1.32 µM (inactive) | > 75 µM (inactive) | > 75 µM (inactive) | 3.36 µM (inactive) | > 75 µM (inactive) |  |  |
| COC(=O)C(CCCN1C(=O)c2ccccc2C1=O)C(=O)OC | > 100 µM (inactive) | > 100 µM (inactive) | > 100 µM (inactive) | > 100 µM (inactive) | > 100 µM (inactive) | > 100 µM (inactive) | > 100 µM (inactive) | > 100 µM (inactive) | > 100 µM (inactive) |  | > 100 µM (inactive) | > 100 µM (inactive) | > 100 µM (inactive) | > 100 µM (inactive) | > 100 µM (inactive) |  |
| CCN(CC)C(=O)CC12CCCCC1=Nc1ccccc12 (stereo not drawn) | > 100 µM (inactive) | > 100 µM (inactive) | > 100 µM (inactive) | > 100 µM (inactive) | > 100 µM (inactive) |  | > 100 µM (inactive) | > 100 µM (inactive) | > 100 µM (inactive) |  | > 100 µM (inactive) | > 100 µM (inactive) | > 100 µM (inactive) |  | > 100 µM (inactive) | > 100 µM (inactive) |
| Cn1ccnc1Cn1cc(-c2cccc(-c3cn[nH]c3)c2)cn1 | 14.6 µM (inactive) | 50.7 µM (inactive) | > 100 µM (inactive) | > 100 µM (inactive) | 63.4 µM (inactive) | 22.6 µM (inactive) | > 100 µM (inactive) | 55.2 µM (inactive) |  | 80 µM (inactive) | 35.5 µM (inactive) | > 100 µM (inactive) | 9.23 µM (inactive) | 19.2 µM (inactive) | 38.1 µM (inactive) | > 100 µM (inactive) |
| COc1cc(C2c3cc4c(cc3[C@@H](OCCN)[C@H]3COC(=O)C23)OCO4)cc(OC)c1O (stereo partly drawn) | 0.413 µM (active) | 0.995 µM (active) | < 0.01 µM (active) | 0.383 µM (active) | < 0.01 µM (active) | 0.155 µM (active) | 1.27 µM (inactive) | 2.05 µM (inactive) | 0.105 µM (active) | < 0.0191 µM (active) | 2.14 µM (inactive) | 1.24 µM (inactive) | 0.0843 µM (active) | 4.09 µM (inactive) | 0.212 µM (active) |  |
| COc1cc2c(cc1O)CN1CCC23C=C[C@@H](O)CC13 (stereo partly drawn) | 65.8 µM (inactive) | 34.1 µM (inactive) | 15.2 µM (inactive) | 41 µM (inactive) | 45.5 µM (inactive) | 52.4 µM (inactive) | > 100 µM (inactive) | 33.2 µM (inactive) |  | 40.6 µM (inactive) | > 100 µM (inactive) | 79.4 µM (inactive) | > 100 µM (inactive) | > 100 µM (inactive) | > 100 µM (inactive) | > 100 µM (inactive) |
| CC(C)=CC(=O)N(C)C1C2CN3CCC(O2)C13 (stereo not drawn) | > 100 µM (inactive) | > 100 µM (inactive) | > 100 µM (inactive) | > 100 µM (inactive) | > 100 µM (inactive) | > 100 µM (inactive) | > 100 µM (inactive) | > 100 µM (inactive) | > 100 µM (inactive) |  | > 100 µM (inactive) | > 100 µM (inactive) | > 100 µM (inactive) | > 100 µM (inactive) | > 100 µM (inactive) |  |
| O=C1C(c2ccc([N+](=O)[O-])cc2)=[N+]([O-])c2ccccc21 | 32.8 µM (inactive) | 25.8 µM (inactive) | 25.8 µM (inactive) | 28.7 µM (inactive) | 31.5 µM (inactive) | 8.57 µM (inactive) | 19.9 µM (inactive) | 9.51 µM (inactive) | 37.9 µM (inactive) | 23.7 µM (inactive) | 37.1 µM (inactive) |  | 19.2 µM (inactive) | 29.4 µM (inactive) |  | 19 µM (inactive) |
| COC(=O)[C@H]1[C@H]2C[C@@H]3c4[nH]c5cc(OC)ccc5c4CCN3C[C@H]2C[C@@H](OC(=O)c2cc(OC)c(OC)c(OC)c2)[C@@H]1OC [RESERPINE] |  | 13.7 µM (inactive) | 14.2 µM (inactive) | 15.4 µM (inactive) | 7.19 µM (inactive) | 17.9 µM (inactive) | 18.3 µM (inactive) | 12.7 µM (inactive) | 11.6 µM (inactive) | 6.12 µM (inactive) | 17.5 µM (inactive) | 15.6 µM (inactive) | 13.3 µM (inactive) | 15.1 µM (inactive) |  | 6.9 µM (inactive) |
